Laboratory results from US10934310B2, “Inhibitors of Bruton's tyrosine kinase and method of their use” (JANSSEN PHARMACEUTICA NV, priority 2015, dated 2021).

The compounds below were run against unphosphorylated-BTK kinase domain (UP-BTK), GST-tagged human BTK (389-659aa) (Homo sapiens (Human), UniProt Q06187) (assay: BTK Kinase Lanthascreen Binding Assay). Conditions: compound, 50 nM Tracer 236, 2 nM anti-GST antibody, 60 minutes; pIC50 = negative log of the IC50 in molar.
Experimental: BTK Kinase Lanthascreen Binding Assay:
A BTK kinase lanthascreen binding assay monitors compound binding to unphosphorylated-BTK kinase domain (UP-BTK), by competing with a fluorescent labeled tracer. […] Data were analyzed using Xlfit™ version 5.3 from ID Business Solutions (Guildford), Microsoft Excel add-in. pIC50 refers to the negative log of the IC50 in molar.

unphosphorylated-BTK kinase domain (UP-BTK), GST-tagged human BTK (389-659aa), sequence (Q06187 389-659): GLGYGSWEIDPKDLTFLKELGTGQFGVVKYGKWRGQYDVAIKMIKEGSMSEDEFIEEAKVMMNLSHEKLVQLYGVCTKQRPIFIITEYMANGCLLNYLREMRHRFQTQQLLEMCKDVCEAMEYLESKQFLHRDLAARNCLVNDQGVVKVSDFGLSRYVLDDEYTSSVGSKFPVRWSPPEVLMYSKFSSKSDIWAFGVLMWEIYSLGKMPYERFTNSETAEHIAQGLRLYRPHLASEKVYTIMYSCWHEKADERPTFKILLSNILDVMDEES

BTK_I_binding pIC50	SMILES
7.17	Cc1cc(Oc2ccccc2)ccc1N1C(=O)Nc2c(C(=O)N[C@H]3CCC[C@@H]3NC(=O)CN)sc3nccc1c23 (single isomer, unassigned) [Example 130, N-((1S,2S)-2-(2-Aminoacetamido)cyclopentyl)-5-(*S)-(2-methyl-4-phenoxyphenyl)-4-oxo-4,5-dihydro-3H-1-thia-3,5,8-triazaacenaphthylene-2-carboxamide]
7.40	Cc1cc(Oc2ccccc2)ccc1N1C(=O)Nc2c(C(=O)N[C@@H]3CCC[C@@H]3NC(=O)CN)sc3nccc1c23 (single isomer, unassigned) [Example 131, N-((1R,2S)-2-(2-Aminoacetamido)cyclopentyl)-5-(*S)-(2-methyl-4-phenoxyphenyl)-4-oxo-4,5-dihydro-3H-1-thia-3,5,8-triazaacenaphthylene-2-carboxamide]
7.27	Cc1cc(Oc2ccccc2)ccc1N1C(=O)Nc2c(C(=O)N[C@@H]3CCCC[C@@H]3NC(=O)CN(C)C)sc3nccc1c23 (single isomer, unassigned) [Example 132, N-((1R,2S)-2-(2-(Dimethylamino)acetamido)cyclohexyl)-5-(*S)-(2-methyl-4-phenoxyphenyl)-4-oxo-4,5-dihydro-3H-1-thia-3,5,8-triazaacenaphthylene-2-carboxamide]
7.13	CNCC(=O)N[C@H]1CCC[C@@H]1NC(=O)c1sc2nccc3c2c1NC(=O)N3c1ccc(Oc2ccccc2)cc1C (single isomer, unassigned) [Example 133, 5-(*S)-(2-Methyl-4-phenoxyphenyl)-N-((1S,2S)-2-(2-(methylamino)acetamido)cyclopentyl)-4-oxo-4,5-dihydro-3H-1-thia-3,5,8-triazaacenaphthylene-2-carboxamide]
6.76	CC(=O)N[C@H]1CCC[C@@H]1NC(=O)c1sc2nccc3c2c1NC(=O)N3c1ccc(Oc2ccccc2)cc1C (single isomer, unassigned) [Example 134, N-((1S,2S)-2-Acetamidocyclopentyl)-5-(*S)-(2-methyl-4-phenoxyphenyl)-4-oxo-4,5-dihydro-3H-1-thia-3,5,8-triazaacenaphthylene-2-carboxamide]
6.82	Cc1cc(Oc2ccccc2)ccc1N1C(=O)Nc2c(C(=O)N[C@H]3CCC[C@@H]3N)sc3nccc1c23 (single isomer, unassigned) [Example 135, N-((1S,2S)-2-Aminocyclopentyl)-5-(*S)-(2-methyl-4-phenoxyphenyl)-4-oxo-4,5-dihydro-3H-1-thia-3,5,8-triazaacenaphthylene-2-carboxamide]
7.52	CC(=O)N[C@H]1CCCC[C@H]1NC(=O)c1sc2nccc3c2c1NC(=O)N3c1ccc(Oc2ccccc2)cc1C (single isomer, unassigned) [Example 136, N-((1R,2S)-2-Acetamidocyclohexyl)-5-(*S)-(2-methyl-4-phenoxyphenyl)-4-oxo-4,5-dihydro-3H-1-thia-3,5,8-triazaacenaphthylene-2-carboxamide]
7.49	CC(=O)N[C@H]1CCC[C@H]1NC(=O)c1sc2nccc3c2c1NC(=O)N3c1ccc(Oc2ccccc2)cc1C (single isomer, unassigned) [Example 138, N-((1R,2S)-2-Acetamidocyclopentyl)-5-(*S)-(2-methyl-4-phenoxyphenyl)-4-oxo-4,5-dihydro-3H-1-thia-3,5,8-triazaacenaphthylene-2-carboxamide]
6.36	Cc1cc(Oc2ccccc2)ccc1N1C(=O)Nc2c(C(=O)N[C@H]3CCC[C@H]3NC(=O)CN)sc3nccc1c23 (single isomer, unassigned) [Example 154, N-((1S,2R)-2-(2-Aminoacetamido)cyclopentyl)-5-(*S)-(2-methyl-4-phenoxyphenyl)-4-oxo-4,5-dihydro-3H-1-thia-3,5,8-triazaacenaphthylene-2-carboxamide]
6.35	Cc1cc(Oc2ccccc2)ccc1N1C(=O)Nc2c(C(=O)N[C@H]3CCC[C@H]3NC(=O)CN(C)C)sc3nccc1c23 (single isomer, unassigned) [Example 155, N-((1S,2R)-2-(2-(Dimethylamino)acetamido)cyclopentyl)-5-(*S)-(2-methyl-4-phenoxyphenyl)-4-oxo-4,5-dihydro-3H-1-thia-3,5,8-triazaacenaphthylene-2-carboxamide]
6.26	CNCC(=O)N[C@@H]1CCC[C@@H]1NC(=O)c1sc2nccc3c2c1NC(=O)N3c1ccc(Oc2ccccc2)cc1C (single isomer, unassigned) [Example 156, 5-(*S)-(2-Methyl-4-phenoxyphenyl)-N-((1S,2R)-2-(2-(methylamino)acetamido)cyclopentyl)-4-oxo-4,5-dihydro-3H-1-thia-3,5,8-triazaacenaphthylene-2-carboxamide]
8.30	C=CC(=O)N[C@H]1CCC[C@H]1NC(=O)c1sc2nccc3c2c1NC(=O)N3c1ccc(OC(C)C)cc1C (single isomer, unassigned) [Example 165, N-((1R,2S)-2-Acrylamidocyclopentyl)-5-(*R)-(4-isopropoxy-2-methylphenyl)-4-oxo-4,5-dihydro-3H-1-thia-3,5,8-triazaacenaphthylene-2-carboxamide]
8.13	C=CC(=O)N[C@H]1CCC[C@H]1NC(=O)c1sc2nccc3c2c1NC(=O)N3c1cnc(Oc2ccccc2)nc1C (single isomer, unassigned) [Example 166, N-((1R,2S)-2-Acrylamidocyclopentyl)-5-(*S)-(4-methyl-2-phenoxypyrimidin-5-yl)-4-oxo-4,5-dihydro-3H-1-thia-3,5,8-triazaacenaphthylene-2-carboxamide]
7.02	Cc1cc(Oc2ccccc2)ncc1N1C(=O)Nc2c(C(=O)N[C@@H]3CCC[C@@H]3N)sc3nccc1c23 (single isomer, unassigned) [Example 170, N-((1R,2S)-2-Aminocyclopentyl)-5-(*S)-(4-methyl-6-phenoxypyridin-3-yl)-4-oxo-4,5-dihydro-3H-1-thia-3,5,8-triazaacenaphthylene-2-carboxamide]
8.19	C=CC(=O)N[C@H]1CCC[C@H]1NC(=O)c1sc2nccc3c2c1NC(=O)N3c1cnc(Oc2ccccc2)cc1C (single isomer, unassigned) [Example 171, N-((1R,2S)-2-Acrylamidocyclopentyl)-5-(*S)-(4-methyl-6-phenoxypyridin-3-yl)-4-oxo-4,5-dihydro-3H-1-thia-3,5,8-triazaacenaphthylene-2-carboxamide]
8.02	C=CC(=O)N[C@H]1CCCC[C@H]1NC(=O)c1sc2nccc3c2c1NC(=O)N3c1cnc(Oc2ccccc2)cc1C (single isomer, unassigned) [Example 173, N-((1R,2S)-2-Acrylamidocyclohexyl)-5-(*S)-(4-methyl-6-phenoxypyridin-3-yl)-4-oxo-4,5-dihydro-3H-1-thia-3,5,8-triazaacenaphthylene-2-carboxamide]
8.28	C=CC(=O)N[C@H]1CCCC[C@H]1NC(=O)c1sc2nccc3c2c1NC(=O)N3c1ccc(OC(C)C)cc1C (single isomer, unassigned) [Example 174, N-((1R,2S)-2-Acrylamidocyclohexyl)-5-(*R)-(4-isopropoxy-2-methylphenyl)-4-oxo-4,5-dihydro-3H-1-thia-3,5,8-triazaacenaphthylene-2-carboxamide]
8.05	C=CC(=O)N[C@@H]1CC[C@@H](NC(=O)c2sc3nccc4c3c2NC(=O)N4c2ccc(Oc3ccccc3)cc2C)C1 (single isomer, unassigned) [Example 175, N-((1R,3R)-3-Acrylamidocyclopentyl)-5-(*S)-(2-methyl-4-phenoxyphenyl)-4-oxo-4,5-dihydro-3H-1-thia-3,5,8-triazaacenaphthylene-2-carboxamide]
7.78	C=CC(=O)N[C@@H]1CCC[C@H](NC(=O)c2sc3nccc4c3c2NC(=O)N4c2ccc(Oc3ccccc3)cc2C)C1 (single isomer, unassigned) [Example 176, N-((1S,3R)-3-Acrylamidocyclohexyl)-5-(*S)-(2-methyl-4-phenoxyphenyl)-4-oxo-4,5-dihydro-3H-1-thia-3,5,8-triazaacenaphthylene-2-carboxamide]
7.94	CC(=O)N[C@@H]1CCC[C@H](NC(=O)c2sc3nccc4c3c2NC(=O)N4c2ccc(Oc3ccccc3)cc2C)C1 (single isomer, unassigned) [Example 180, N-((1S,3R)-3-Acetamidocyclohexyl)-5-(*S)-(2-methyl-4-phenoxyphenyl)-4-oxo-4,5-dihydro-3H-1-thia-3,5,8-triazaacenaphthylene-2-carboxamide]
7.33	Cc1cc(Oc2ccccc2)ccc1N1C(=O)Nc2c(C(=O)N[C@@H]3CCC[C@@H](N)C3)sc3nccc1c23 (single isomer, unassigned) [Example 181]
7.66	C=CC(=O)N[C@@H]1CCC[C@@H](NC(=O)c2sc3nccc4c3c2NC(=O)N4c2ccc(Oc3ccccc3)cc2C)C1 (single isomer, unassigned) [Example 182, N-((1R,3R)-3-Acrylamidocyclohexyl)-5-(*S)-(2-methyl-4-phenoxyphenyl)-4-oxo-4,5-dihydro-3H-1-thia-3,5,8-triazaacenaphthylene-2-carboxamide]

Same assay, conditions: read-out: BTK_I_binding pIC50 (converted)

IC50	SMILES
> 1000 nM	CC(=O)N[C@@H]1CCC[C@@H]1NC(=O)c1sc2nccc3c2c1NC(=O)N3c1ccc(Oc2ccccc2)cc1C (single isomer, unassigned) [Example 162, N-((1S,2R)-2-Acetamidocyclopentyl)-5-(*S)-(2-methyl-4-phenoxyphenyl)-4-oxo-4,5-dihydro-3H-1-thia-3,5,8-triazaacenaphthylene-2-carboxamide]
